In the RepoRT retention time repository:
Structures can show the parent of a compound that is named as a salt.

assay: RP, Waters ACQUITY UPLC HSS T3, 150 × 2.1 mm, 1.8 µm, 45 °C, 0.6 mL/min, estimated dead time 0.55 min; A: water + 0.1% formic acid, pH 3; B: acetonitrile + 0.1% formic acid, pH 3; gradient (min/%B) 0/1 0.1/1 10/55 10.15/65 10.30/75 10.45/85 10.60/95 10.70/100 11/100 11.55/100 11.65/1 11.70/1 11.80/1 11.90/1 12/1 12.10/1 12.15/1 12.65/1; conditions: stereoisomer not certain

LC retention time [min] | SMILES
2.7 | O=C1NS(=O)(=O)c2ccccc21 [Saccharin]
5.48 | O=C(O)c1ccccc1O [Salicylic acid]
4.39 | O=C(O)CNC(=O)c1ccccc1O [Salicyluric acid]
4.46 | O=C(O)CCCCCCC(=O)O [Suberic acid]
1.37 | O=C(O)CCC(=O)O [Succinic acid]
2.31 | O=C(O)CC(Nc1ncnc2c1ncn2C1OC(CO)C(O)C1O)C(=O)O (stereo not drawn) [Succinyladenosine]
1.65 | Nc1c(C(=O)NC(CC(=O)O)C(=O)O)ncn1C1OC(CO)C(O)C1O (stereo not drawn) [Succinylaminoimidazole carboxamide riboside]
0.68 | OCC1OC(OC2(CO)OC(CO)C(O)C2O)C(O)C(O)C1O (stereo not drawn) [Sucrose]
2.1 | O=C(O)c1ccc(CO)o1 [Sumiki's acid]
8.93 | CC(CCC(=O)NCCS(=O)(=O)O)C1CCC2C3CCC4CC(OS(=O)(=O)O)CCC4(C)C3CCC12C (stereo not drawn) [Taurolithocholic acid 3-sulfate]
2.76 | Cn1c(=O)c2[nH]cnc2n(C)c1=O [Theophylline]
7.37 | Cc1ccc(C(C)C)c(OS(=O)(=O)O)c1 [Thymol Sulfate]
2.92 | CC=C(C)C(=O)NCC(=O)O [Tiglylglycine]
1.38 | NC(Cc1ccc(O)cc1)C(=O)O (stereo not drawn) [Tyrosine]
1.12 | O=c1[nH]c(=O)c2[nH]c(=O)[nH]c2[nH]1 [Uric acid]
1.38 | O=c1ccn(C2OC(CO)C(O)C2O)c(=O)[nH]1 (stereo not drawn) [Uridine]
1.97 | COc1cc(C(O)C(=O)O)ccc1O (stereo not drawn) [Vanillylmandelic acid]
1.31 | O=c1[nH]c(=O)c2[nH]cnc2[nH]1 [Xanthine]
1.83 | O=c1[nH]c(=O)c2ncn(C3OC(CO)C(O)C3O)c2[nH]1 (stereo not drawn) [Xanthosine]
4.88 | O=C(O)/C=C/c1cccc(O)c1 [m-Coumaric acid]
4.3 | Cc1ccc(OC2OC(C(=O)O)C(O)C(O)C2O)cc1 (stereo not drawn) [p-Cresol glucuronide]
4.2 | Cc1ccc(OS(=O)(=O)O)cc1 [p-Cresol sulfate]
1.57 | O=C(O)C(O)c1ccc(O)cc1 (stereo not drawn) [p-Hydroxymandelic acid]
